Measurements taken from article PMC6720825, “Thiol-ene "Click" Synthesis and Pharmacological Evaluation of C-Glycoside sp^2-Iminosugar Glycolipids” (Molecules, 2019).
Entries after “also recorded” stand apart in the source; their conditions may differ. Read-outs that look alike come from different tables or passages of the source.

What was measured:
MCF-7, breast = tested on: MCF-7, breast; design: method as in PMID 24124558, PMID 28145580; conditions: Figure 1; cited from earlier work
MDA-MB-231, breast = tested on: MDA-MB-231, breast; design: method as in PMID 24124558, PMID 28145580; conditions: Figure 1; cited from earlier work
A549, lung = tested on: A549, lung; design: method as in doi:10.1039/C5RA02627J; conditions: Figure 1; cited from earlier work
[1] = tested on: intracellular amastigotes of Leishmania donovani (amastigotes HU3); design: method as in doi:10.1039/C5RA02627J; conditions: cited from earlier work; for EC50: intracellular amastigotes of Leishmania donovani
[2] = tested on: different human tumor cell lines; design: method as in doi:10.1039/C5RA02627J; conditions: read-out: GI50 against different human tumor cell lines; cited from earlier work
α-Glcase (Yeast Maltase) = biological target: T1, α-Glcase (Yeast Maltase) (Saccharomyces cerevisiae, UniProt P53341); experiment: Glycosidase inhibition (Ki), yeast maltase α-glucosidase; format: biochemical
T1 construct: purchased
T1 sequence (P53341 whole entry): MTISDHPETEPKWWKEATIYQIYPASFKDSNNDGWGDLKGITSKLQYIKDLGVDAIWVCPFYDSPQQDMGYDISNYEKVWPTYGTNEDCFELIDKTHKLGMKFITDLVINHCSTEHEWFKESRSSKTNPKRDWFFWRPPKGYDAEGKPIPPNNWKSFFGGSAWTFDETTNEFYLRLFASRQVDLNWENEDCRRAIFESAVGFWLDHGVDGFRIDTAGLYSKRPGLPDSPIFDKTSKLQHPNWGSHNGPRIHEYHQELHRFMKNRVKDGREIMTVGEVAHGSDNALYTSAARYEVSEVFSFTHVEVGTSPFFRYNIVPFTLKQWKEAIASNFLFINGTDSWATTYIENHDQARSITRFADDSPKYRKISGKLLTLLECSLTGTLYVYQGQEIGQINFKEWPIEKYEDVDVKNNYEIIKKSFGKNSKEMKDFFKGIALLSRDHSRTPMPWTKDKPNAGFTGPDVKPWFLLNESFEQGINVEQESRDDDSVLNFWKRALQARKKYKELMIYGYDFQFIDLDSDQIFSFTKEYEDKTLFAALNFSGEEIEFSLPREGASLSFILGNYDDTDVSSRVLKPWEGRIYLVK
Source text: (§1) The inhibitory properties of the new sp^2-IGLs 1–12 and the α-C-allyl ONJ and OGJ glycosides 15, and 24 were examined against a panel of commercial glycosidases that included the α-glucosidases maltase (Saccharomyces cerevisiae) and amyloglucosidase (Aspergillus niger), the β-glucosidases from almonds and bovine liver, α-galactosidase from green coffee beans, β-galactosidase from Escherichia coli, α-mannosidase from Jack beans, and β-mannosidase from Helix pomatia. The corresponding inhibition constant (Ki) values are collected in Table 1.
(§2) Inhibition constant (Ki) values were determined by spectrophotometrically measuring the residual hydrolytic activities of the glycosidases against the respective o- (for β-galactosidase from E. coli) or p-nitrophenyl α- or β-D-glycopyranoside (for other glycosidases) in the presence of the iminosugars. Each assay was performed in phosphate buffer or phosphate-citrate buffer (for α- or β-mannosidase and amyloglucosidase) at the optimal pH for the enzymes. The reactions were initiated by addition of the enzyme to a solution of the substrate in the absence or presence of various inhibitor concentrations. The mixture was incubated for 10–30 min at 37 °C or 55 °C (for amyloglucosidase) and the reaction was quenched by addition of 1 M Na2CO3. Reaction times were appropriate to obtain 10–20% conversion of the substrate in order to achieve linear rates. The absorbance of the resulting mixture was determined at 405 nm. Approximate value of Ki was determined from the slope of Dixon plots using a fixed concentration of substrate (around the Km value for the different glycosidases) and various concentrations of inhibitor. Full Ki determinations and enzyme inhibition mode were determined from the slope of Lineweaver–Burk plots and double reciprocal analysis. Representative examples of Dixon and Lineweaver–Burk plots are shown in the Supplementary materials.

β-Glcase (Bovine Liver) = biological target: T2, β-Glcase (Bovine Liver) (Bos taurus, UniProt F1MNT6); experiment: Glycosidase inhibition (Ki), bovine liver β-glucosidase; format: biochemical; conditions: mean ± SD, three independent determinations; competitive inhibition
T2 sequence (F1MNT6 1-469): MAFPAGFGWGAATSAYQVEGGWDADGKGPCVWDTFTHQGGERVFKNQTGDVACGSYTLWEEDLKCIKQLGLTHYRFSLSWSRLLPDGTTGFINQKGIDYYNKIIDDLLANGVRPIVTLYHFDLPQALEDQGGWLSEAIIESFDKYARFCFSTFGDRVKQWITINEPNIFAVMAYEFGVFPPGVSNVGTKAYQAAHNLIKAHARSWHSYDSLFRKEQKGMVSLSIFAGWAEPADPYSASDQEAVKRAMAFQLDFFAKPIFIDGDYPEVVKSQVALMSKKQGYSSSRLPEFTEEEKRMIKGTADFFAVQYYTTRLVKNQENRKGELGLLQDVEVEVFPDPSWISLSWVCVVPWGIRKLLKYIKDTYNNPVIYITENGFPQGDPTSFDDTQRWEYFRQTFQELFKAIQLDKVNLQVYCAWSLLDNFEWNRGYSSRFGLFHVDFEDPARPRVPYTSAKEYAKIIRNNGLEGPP
Source text: as §1, §2

[3] = tested on: human solid tumor cell lines A549, SW1573 (lung), HBL-100, T-47D (breast), HeLa (cervix), WiDr (colon); experiment: Antiproliferative activity (SRB assay) against a panel of six human solid tumor cell lines; format: cell-based; conditions: for GI50: read-out: GI50 (concentration to achieve 50% growth inhibition), 48 h, tested 1 to 100 μM, only values below 100 μM significant; for GI50 (concentration to achieve 50% growth inhibition): 48 h, tested 1 to 100 μM, only values below 100 μM significant
Procedure: The antiproliferative activity of all the sp^2-iminosugar C-glycosides (1–12) was evaluated against a panel of six representative human solid tumor cell lines including lung (A549 and SW1573), breast (HBL-100, T-47D), cervix (HeLa), and colon (WiDr).
All reagents were used as purchased from commercial suppliers without further purification. The human solid tumor cell lines A549 (lung), HBL-100 (breast), HeLa (cervix), SW1573 (lung), T-47D (breast), and WiDr (colon) were used in this study. These cell lines were a kind gift from Prof. G. J. Peters (VU Medical Center, Amsterdam, The Netherlands).
Cells were inoculated onto 96-well microtiter plates in a volume of 100 μL per well at densities of 2500 (A549, HBL-100, HeLa, and SW1573) and 5000 (T-47D and WiDr) cells per well, based on their doubling times. Compounds were initially dissolved in DMSO at 400 times the desired final maximum test concentration. Control cells were exposed to an equivalent concentration of DMSO (0.25% v/v, negative control). Each agent was tested in triplicate at different dilutions in the range of 1 to 100 μM. The drug treatment started on day 1 after plating. Drug incubation times were 48 h, after which cells were precipitated with 25 μL ice-cold TCA (50% w/v) and fixed for 60 min at 4 °C. Then the SRB assay was performed. The optical density (OD) of each well was measured at 530 nm, using BioTek’s PowerWave XS Absorbance Microplate Reader. Values were corrected for background OD from wells only containing medium. The antiproliferative activity for each compound, expressed as GI50 values, was calculated according to NCI formulas.

[4] = tested on: intracellular amastigotes of Leishmania donovani MHOM/ET/67/HU3 line; experiment: Susceptibility of intracellular Leishmania amastigotes (luciferase assay); format: cell-based; conditions: L. donovani in THP-1 macrophages, 72 h at 37 °C, threshold 20 μM
Procedure: The leishmanicidal activity of all the synthesized sp^2-iminosugar C-glycosides (1–12) was evaluated against intracellular amastigotes of Leishmania donovani MHOM/ET/67/HU3 line with luciferase gene integrated into the parasite genome. […] A strong influence of the nature of the lipid chain α-linked to the pseudoanomeric position of the bicyclic core in the sp^2-IGLs was inferred from the corresponding data. […] The longer-chain sp^2-IGLs 2 and 8 were over the 20 μM concentration threshold in this assay. In the sulfone series, the results evidenced some disparity between the ONJ and OGJ epimers.
Macrophage-differentiated THP-1 cells, which are considered a suitable model for human macrophages, were plated at a density of 3 × 10^4 or 3 × 10^5 macrophages/well in 96-well white polystyrene microplates or 24-well tissue culture chamber slides, respectively, and were infected at a macrophage/parasite ratio of 1:10 with L. donovani promastigotes. Twenty-four hours after infection at 35 °C and 5% CO2, extracellular parasites were removed by washing with serum-free medium. Infected cell cultures were then incubated at different compound concentrations in RPMI 1640 medium plus 10% iFBS at 37 °C with 5% CO2 for 72 h. To determine the susceptibility of L. donovani LUC amastigotes, infected macrophages maintained in 96-well plates were lysed and then luminescence intensity was measured as indicative of the intracellular parasite growth, using the Luciferase Assay System Kit (Promega, Madison, Wis.) according to the instructions of the supplier. To determine the susceptibility of L. donovani HU3 amastigotes, infected macrophages maintained in 24-well plates were fixed for 30 min at 4 °C with 2.5% paraformaldehyde phosphate-buffered saline (PBS; 1.2 mM KH2PO4, 8.1 mM Na2HPO4, 130 mM NaCl, and 2.6 mM KCl adjusted to pH 7) and permeabilized with 0.1% Triton X-100 in PBS for 30 min. Intracellular parasites and macrophages were detected by nuclear staining with ProLong® Gold antifade reagent plus DAPI (Invitrogen). The percentage infection and mean number of amastigotes from infected macrophages were determined with 200 macrophages/well.

THP-1 cells = experiment: Cellular toxicity (MTT assay) in THP-1 cells; format: cell-based, human; conditions: for EC50: Homo sapiens, THP-1, MTT assay, 72 h at 37 °C
Procedure: Human myelomonocytic cell line THP-1 was grown at 37 °C and 5% CO2 in RPMI-1640 supplemented with 10% iFBS, 2 mM […], 100 U/mL penicillin, and 100 μg/mL streptomycin; 3 × 10^4 cells/well in 96-well plates were differentiated to macrophages with 20 ng/mL of PMA treatment for 48 h followed by 24 h of culture in fresh medium. Cellular toxicity of all compounds was determined using the colorimetric MTT-based assay after incubation at 37 °C for 72 h in the presence of increasing concentrations of compounds [71].

[5] = tested on: human lung fibroblast MRC-5 cells; experiment: Cellular toxicity (MTT assay) in MRC-5 cells; format: cell-based; conditions: for EC50: Homo sapiens, MRC5, MTT assay, 72 h at 37 °C; for SI (EC50 MRC-5/EC50 parasite): Selectivity Index
[6] = biological target: T3, green coffee bean α-galactosidase (Coffea arabica, UniProt Q42656); experiment: Glycosidase inhibition, green coffee bean α-galactosidase; format: biochemical, green coffee beans; conditions: 1 mM concentration
T3 construct: purchased
T3 sequence (Q42656 16-378): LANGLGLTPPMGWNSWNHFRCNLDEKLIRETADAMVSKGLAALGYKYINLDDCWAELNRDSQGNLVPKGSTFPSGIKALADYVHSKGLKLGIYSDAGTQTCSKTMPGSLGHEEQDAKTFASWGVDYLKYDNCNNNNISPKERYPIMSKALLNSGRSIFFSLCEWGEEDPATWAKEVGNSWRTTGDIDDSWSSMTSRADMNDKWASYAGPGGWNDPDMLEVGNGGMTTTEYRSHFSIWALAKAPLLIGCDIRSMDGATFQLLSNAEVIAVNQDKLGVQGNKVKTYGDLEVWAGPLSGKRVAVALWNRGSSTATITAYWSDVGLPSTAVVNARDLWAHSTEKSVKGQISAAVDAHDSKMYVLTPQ
Source text: as §1
Inhibition constant (Ki) values were determined by spectrophotometrically measuring the residual hydrolytic activities of the glycosidases against the respective o- (for β-galactosidase from E. coli) or p-nitrophenyl α- or β-D-glycopyranoside (for other glycosidases) in the presence of the iminosugars. […] The absorbance of the resulting mixture was determined at 405 nm. Approximate value of Ki was determined from the slope of Dixon plots using a fixed concentration of substrate (around the Km value for the different glycosidases) and various concentrations of inhibitor. Full Ki determinations and enzyme inhibition mode were determined from the slope of Lineweaver–Burk plots and double reciprocal analysis. […]

[7] = mean ± SD, three independent determinations, competitive inhibition

SMILES: CCCCCCCC[C@@H]1[C@H](O)[C@@H](O)[C@H](O)[C@H]2COC(=O)N12 [OC-ONJ]
- IC50 (MCF-7, breast): 26 µM
- IC50 (MDA-MB-231, breast): 44 µM

SMILES: CCCCCCCCCCCCS[C@@H]1[C@H](O)[C@@H](O)[C@H](O)[C@H]2COC(=O)N21 [DS-ONJ]
- GI50 (A549, lung): 16 µM
- Improvement of leishmanicidal potency relative to OS-ONJ [1]: up to 5 fold
- EC50 [1]: 20.5 µM
- GI50 [2]: < 20 µM

SMILES: CCCCCCCCSCCC[C@@H]1[C@H](O)[C@@H](O)[C@@H](O)[C@H]2COC(=O)N12 [Compound 7, (1R)-1-[3-(Octylthio)propyl]-5N,6O-oxomethylidene-1-deoxygalactonojirimycin]
- Ki, α-Glcase (Yeast Maltase) (α-Glcase (Yeast Maltase); [7]): n.i.
- Ki, β-Glcase (Bovine Liver) (β-Glcase (Bovine Liver)): n.i.
- GI50 [3]: 14 to 54 µM
- EC50 [4]: 10.6 ± 1.51 µM
- EC50 (THP-1 cells): 128 ± 5.71 µM
- SI (EC50 THP-1/EC50 parasite) (THP-1 cells; Selectivity Index): 12.06
- EC50 [5]: 60.4 ± 2.8 µM
- SI (EC50 MRC-5/EC50 parasite) [5]: 5.72

SMILES: C=CC[C@@H]1[C@H](O)[C@@H](O)[C@H](O)[C@H]2COC(=O)N12 [Compound 15, (1R)-1-Allyl-5N,6O-oxomethylidene-1-deoxynojirimycin]
- Ki (α-Glcase (Yeast Maltase)): 79 ± 8 µM
- Ki, β-Glcase (Bovine Liver) (β-Glcase (Bovine Liver)): n.i.

SMILES: CCCCCCCCS[C@@H]1[C@H](O)[C@@H](O)[C@H](O)[C@H]2COC(=O)N21 [OS-ONJ]
- IC50 (MCF-7, breast): 37 µM
- IC50 (MDA-MB-231, breast): 35 µM
- EC50 [1]: 73.3 µM

SMILES: CC(C)(C)OC(=O)NCCSCCC[C@@H]1[C@H](O)[C@@H](O)[C@H](O)[C@H]2COC(=O)N12 [Compound 3, (1R)-1-[3-(N-tert-Butoxycarbonylaminoethylthio)propyl]-5N,6O-oxomethylidene-1-deoxynojirimycin]
- Ki (α-Glcase (Yeast Maltase)): 0.28 ± 0.02 µM
- GI50 (concentration to achieve 50% growth inhibition) [3]: did not show any significant antiproliferative activity; also recorded: out of range; also recorded: did not display significant antiproliferative activity
- GI50 [3]: > 100 µM
- EC50 [4]: 15 ± 1.28 µM
- EC50 (THP-1 cells): > 200 µM
- EC50 [5]: 134 ± 6.02 µM
- SI (EC50 MRC-5/EC50 parasite) [5]: 8.95

SMILES: CC(C)(C)OC(=O)NCCS(=O)(=O)CCC[C@@H]1[C@H](O)[C@@H](O)[C@H](O)[C@H]2COC(=O)N12 [Compound 6, (1R)-1-[3-(N-tert-Butoxycarbonylaminoethylsulfonyl)propyl]-5N,6O-oxomethylidene-1-deoxynojirimycin]
- Ki (α-Glcase (Yeast Maltase); mean ± SD, three independent determinations, competitive inhibition, read-out: Ki, α-Glcase (Yeast Maltase)): 0.75 ± 0.02 µM
- GI50 (concentration to achieve 50% growth inhibition) [3]: did not show any significant antiproliferative activity
- GI50 [3]: > 100 µM
- EC50 [4]: > 20 µM
- EC50 (THP-1 cells): > 200 µM
- EC50 [5]: 155 ± 3.1 µM
- SI (EC50 MRC-5/EC50 parasite) [5]: < 7.76

SMILES: C=CC[C@@H]1[C@H](O)[C@@H](O)[C@@H](O)[C@H]2COC(=O)N12 [Compound 24, (1R)-1-Allyl-5N,6O-oxomethylidene-1-deoxygalactonojirimycin]
- Ki, α-Glcase (Yeast Maltase) (α-Glcase (Yeast Maltase); [7]): n.i.
- Ki, β-Glcase (Bovine Liver) (β-Glcase (Bovine Liver)): n.i.
- Inhibition of green coffee bean α-galactosidase [6]: Neither epimeric OGJ sp^2-IGLs 7–12 nor α-allyl OGJ glycoside 24 behaved as inhibitors

SMILES: CC(C)(C)OC(=O)NCCSCCC[C@@H]1[C@H](O)[C@@H](O)[C@@H](O)[C@H]2COC(=O)N12 [Compound 9, (1R)-1-[3-(N-tert-Butoxycarbonylaminoethylthio)propyl]-5N,6O-oxomethylidene-1-deoxygalactonojirimycin]
- Ki, α-Glcase (Yeast Maltase) (α-Glcase (Yeast Maltase); [7]): n.i.
- Ki, β-Glcase (Bovine Liver) (β-Glcase (Bovine Liver)): n.i.
- GI50 (concentration to achieve 50% growth inhibition) [3]: did not show any significant antiproliferative activity; also recorded: did not display significant antiproliferative activity
- GI50 [3]: > 100 µM
- EC50 [4]: 13.4 ± 1.13 µM
- EC50 (THP-1 cells): > 200 µM
- EC50 [5]: 140 ± 17.3 µM
- SI (EC50 MRC-5/EC50 parasite) [5]: 10.44
